Reference: ChEMBL document CHEMBL5370633, “Anti-cancer Effect of a Planar Catechin Analog through the Decrease in Mitochondrial Membrane Potential” (ACS Med Chem Lett, 2023)
Calls of active or inactive are those of the source. No cut-off for these calls is given here.

Key:
[1] = Cytotoxicity against rat RGM1 cells assessed as reduction in viability at 100 to 100 uM after 24 hrs by CCK-8 assay; format: toxicity, cell-based; conditions: rgm1, 24 h, dose 100-100 µM
RGK1 [2] = experiment: Induction of mitochondrial membrane potential loss in rat RGK1 cells at 200 uM after 24 hrs by MitoTracker Red CMXRos fluorescence microscopic analysis; format: functional, cell-based
RGK1 [3] = experiment: Antiproliferative activity against rat RGK1 cells assessed as reduction in viability at 100 to 100 uM after 24 hrs by CCK-8 assay; format: functional, cell-based; conditions: dose 100-100 µM

Question: For `CC1(C)O[C@H]2Cc3c(O)cc(O)cc3O[C@@H]2c2cc(O)c(O)cc21`, which Activity [1] is on record?
Answer: The Activity was “Toxic”.

Question: What about the Activity (RGK1 [2]) of the same compound?
Answer: Its Activity is “Active”.

Question: And the Activity (RGK1 [3])?
Answer: The Activity was “Active”.
